# Active and inactive are the calls of the source. The calls are words filed in the database; no cut-off is given here.
# What was measured:
# [1] = system: Human immunodeficiency virus 2; test: Antiviral activity against HIV2 ROD infected in human CEM/0 CD4+ T cells assessed as reduction in virus-induced cytopathogenicity by measuring syncytia cell formation incubated for 4 to 5 days by microscopy; settings: Human immunodeficiency virus 2, ISOLATE ROD, CCRF-CEM
# [2] = Half life in human CEM/0 cell extracts at 6 mM by HPLC analysis; assay type: ADME, tissue-based, CCRF-CEM
# [3] = Half life in pH 7.3 PBS buffer at 1.4 mM by HPLC analysis; assay type: physicochemical
# [4] = system: Human immunodeficiency virus 2; test: Antiviral activity against HIV2 ROD infected in human TK-deficient CEM/TK- T-cells assessed as reduction in virus-induced cytopathogenicity by measuring syncytia cell formation incubated for 4 to 5 days by microscopy; settings: Human immunodeficiency virus 2, ISOLATE ROD
# [5] = Half life assessed as pig liver esterase-mediated compound hydrolysis at 6 mM by HPLC analysis; assay type: ADME, Sus scrofa
# [6] = Cytotoxicity in human CEM cells assessed as reduction in cell proliferation; assay type: cell-based; settings: CEM cells (CCRF-CEM)
# [7] = system: Human immunodeficiency virus 1; test: Antiviral activity against HIV1 3B infected in human CEM/0 CD4+ T cells assessed as reduction in virus-induced cytopathogenicity by measuring syncytia cell formation incubated for 4 to 5 days by microscopy; assay type: functional, organism-based; settings: Human immunodeficiency virus 1, 3B, CCRF-CEM
# [8] = molecular target: DNA polymerase beta (Homo sapiens) (UniProt P06746); test: Substrate activity at human DNA polymerase beta incubated at 37 degC for 60 mins and at 80 degC for 7 mins by primer extension assay; settings: time 67.0 min
# Homo sapiens = organism: Homo sapiens; test: Substrate activity at human DNA polymerase gamma incubated at 37 degC for 60 mins and at 80 degC for 7 mins by primer extension assay; settings: time 67.0 min
# [9] = molecular target: T1, DNA polymerase alpha catalytic subunit (Homo sapiens) (UniProt P09884); test: Substrate activity at human DNA polymerase alpha incubated at 37 degC for 60 mins and at 80 degC for 7 mins by primer extension assay; settings: time 67.0 min
# T1 sequence (whole entry): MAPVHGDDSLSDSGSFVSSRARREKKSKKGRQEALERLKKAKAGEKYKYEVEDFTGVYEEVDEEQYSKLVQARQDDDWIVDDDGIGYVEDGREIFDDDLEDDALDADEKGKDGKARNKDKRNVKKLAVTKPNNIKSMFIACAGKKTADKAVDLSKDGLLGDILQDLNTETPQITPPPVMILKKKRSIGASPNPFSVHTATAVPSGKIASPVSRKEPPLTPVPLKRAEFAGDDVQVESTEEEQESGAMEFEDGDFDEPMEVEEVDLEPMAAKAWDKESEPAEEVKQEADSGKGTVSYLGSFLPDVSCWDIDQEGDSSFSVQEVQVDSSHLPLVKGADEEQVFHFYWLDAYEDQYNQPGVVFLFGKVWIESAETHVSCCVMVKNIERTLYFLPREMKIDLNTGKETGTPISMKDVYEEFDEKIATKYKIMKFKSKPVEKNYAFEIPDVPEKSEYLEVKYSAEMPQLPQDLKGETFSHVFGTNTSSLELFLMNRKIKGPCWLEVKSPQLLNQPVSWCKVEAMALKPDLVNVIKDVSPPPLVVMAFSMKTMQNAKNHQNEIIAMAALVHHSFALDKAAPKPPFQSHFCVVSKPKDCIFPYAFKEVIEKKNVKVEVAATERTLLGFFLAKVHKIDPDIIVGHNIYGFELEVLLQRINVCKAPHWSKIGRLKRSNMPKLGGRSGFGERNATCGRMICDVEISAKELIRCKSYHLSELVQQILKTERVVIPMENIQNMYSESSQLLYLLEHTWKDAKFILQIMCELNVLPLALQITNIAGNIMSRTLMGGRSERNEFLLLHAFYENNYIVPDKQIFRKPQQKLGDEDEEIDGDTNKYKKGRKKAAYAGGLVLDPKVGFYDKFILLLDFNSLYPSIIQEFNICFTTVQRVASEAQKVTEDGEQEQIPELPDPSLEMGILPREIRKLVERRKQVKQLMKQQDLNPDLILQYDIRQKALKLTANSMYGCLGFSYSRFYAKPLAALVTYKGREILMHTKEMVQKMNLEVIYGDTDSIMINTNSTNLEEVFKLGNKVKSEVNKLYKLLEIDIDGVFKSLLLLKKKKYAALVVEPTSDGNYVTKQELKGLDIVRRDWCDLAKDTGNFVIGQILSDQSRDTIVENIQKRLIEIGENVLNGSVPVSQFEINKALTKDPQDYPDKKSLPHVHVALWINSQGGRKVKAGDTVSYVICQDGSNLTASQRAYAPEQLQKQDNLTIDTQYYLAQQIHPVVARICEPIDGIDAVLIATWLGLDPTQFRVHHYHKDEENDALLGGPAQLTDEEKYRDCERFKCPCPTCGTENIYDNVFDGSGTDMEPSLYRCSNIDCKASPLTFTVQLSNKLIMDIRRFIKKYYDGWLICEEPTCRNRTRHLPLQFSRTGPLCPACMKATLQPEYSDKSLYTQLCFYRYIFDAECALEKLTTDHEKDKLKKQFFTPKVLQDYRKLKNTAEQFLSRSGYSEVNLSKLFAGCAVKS
# [10] = molecular target: Human immunodeficiency virus type 1 reverse transcriptase (Human immunodeficiency virus 1) (UniProt Q72547); test: Substrate activity at HIV1 reverse transcriptase incubated at 37 degC for 30 mins and at 80 degC for 7 mins by primer extension assay; settings: time 37.0 min
SMILES,EC50 [1] [µM],half-life at 6000 µM [2] [h],half-life at 1400 µM [3] [days],EC50 [4] [µM],half-life at 6000 µM [5] [h],CC50 [6] [µM],EC50 [7] [µM],Activity [8],Activity (Homo sapiens),Activity [9],Activity [10]
CCCCCCCCCCCCCCCCCCP(=O)(OCc1ccc(OC(=O)OCCCC)cc1)OP(=O)(O)OP(=O)(O)OC[C@@H]1C=C[C@H](n2cc(C)c(=O)[nH]c2=O)O1.N.N (stereo not given in full),0.026,> 10,51.7,0.032,1.04,16,0.0018,–,–,–,–
CCCCCCCCCCCCCCP(=O)(OCc1ccc(OC(=O)CCCC)cc1)OP(=O)(O)OP(=O)(O)OC[C@@H]1C=C[C@H](n2cc(C)c(=O)[nH]c2=O)O1.N.N (stereo not given in full),0.16,4.5,21.2,0.53,0.081,56,0.031,–,–,–,–
CCCCCCCCCCCCP(=O)(OCc1ccc(OC(=O)OCCCC)cc1)OP(=O)(O)OP(=O)(O)OC[C@@H]1C=C[C@H](n2cc(C)c(=O)[nH]c2=O)O1.N.N (stereo not given in full),0.2,4.3,14.4,9.9,0.009,38,0.097,–,–,–,–
CCCCCCCCCCCCP(=O)(OCCC#N)OP(=O)(O)OP(=O)(O)OC[C@@H]1C=C[C@H](n2cc(C)c(=O)[nH]c2=O)O1.N.N (stereo not given in full),0.087,> 15,6.17,20.9,> 80,> 100,0.21,–,–,–,–
CCCCCCCCCCCCCCCCCCP(=O)(OCc1ccc(OC(=O)CCCC)cc1)OP(=O)(O)OP(=O)(O)OC[C@@H]1C=C[C@H](n2cc(C)c(=O)[nH]c2=O)O1.N.N (stereo not given in full),0.021,6.7,26.9,0.042,2,19,0.0074,–,–,–,–
CCCCCCCCCCCCCCP(=O)(OCc1ccc(OC(=O)OCCCC)cc1)OP(=O)(O)OP(=O)(O)OC[C@@H]1C=C[C@H](n2cc(C)c(=O)[nH]c2=O)O1.N.N (stereo not given in full),0.22,64,21.6,1.76,0.032,32,0.12,–,–,–,–
CCCCCCCCCCCCCCCCCCP(=O)(O)OP(=O)(O)OP(=O)(O)OC[C@@H]1C=C[C@H](n2cc(C)c(=O)[nH]c2=O)O1.N.N.N,0.11,> 30,22.3,1.58,> 80,21,0.046,inactive,inactive,inactive,inactive
CCCCCCCCCCCCP(=O)(OCc1ccc(OC(=O)CCCC)cc1)OP(=O)(O)OP(=O)(O)OC[C@@H]1C=C[C@H](n2cc(C)c(=O)[nH]c2=O)O1.N.N (stereo not given in full),0.025,0.81,8.96,3.43,0.013,86,0.065,–,–,–,–
CCCCCCCCCCCCCCCCCCP(=O)(OCCC#N)OP(=O)(O)OP(=O)(O)OC[C@@H]1C=C[C@H](n2cc(C)c(=O)[nH]c2=O)O1.N.N (stereo not given in full),0.046,> 10,20,0.14,> 150,38,0.095,–,–,–,–
CCCCCCCCCCCCP(=O)(OCc1ccc(OC(=O)OCCCCCCCCCCC)cc1)OP(=O)(O)OP(=O)(O)OC[C@@H]1C=C[C@H](n2cc(C)c(=O)[nH]c2=O)O1.N.N (stereo not given in full),0.11,> 10,47.9,0.32,10.6,39,0.04,–,–,–,–
CCCCCCCCCCCCP(=O)(OCc1ccc(OC(=O)CCCCCCCCCCC)cc1)OP(=O)(O)OP(=O)(O)OC[C@@H]1C=C[C@H](n2cc(C)c(=O)[nH]c2=O)O1.N.N (stereo not given in full),0.091,> 8,38.3,0.066,0.917,37,0.0074,–,–,–,–
CCCCCCCCCCCCP(=O)(OCc1ccc(OC(=O)OC)cc1)OP(=O)(O)OP(=O)(O)OC[C@@H]1C=C[C@H](n2cc(C)c(=O)[nH]c2=O)O1.N.N (stereo not given in full),0.35,0.65,5.12,36.8,0.7,> 100,0.095,–,–,–,–
Cc1cn([C@H]2C=C[C@@H](CO)O2)c(=O)[nH]c1=O [STAVUDINE],–,–,–,–,–,> 50,–,Active,inactive,inactive,–
CCCCCCCCCCCCP(=O)(O)OP(=O)(O)OP(=O)(O)OC[C@@H]1C=C[C@H](n2cc(C)c(=O)[nH]c2=O)O1.N.N.N,0.17,> 30,> 125,41.1,> 150,> 100,0.15,inactive,inactive,inactive,Active
CCCCCCCCCCCCP(=O)(OCc1ccc(OC(C)=O)cc1)OP(=O)(O)OP(=O)(O)OC[C@@H]1C=C[C@H](n2cc(C)c(=O)[nH]c2=O)O1.N.N (stereo not given in full),0.021,0.043,4.29,26.3,0.46,> 100,0.023,–,–,–,–

# From ChEMBL document CHEMBL4725417, “Membrane Permeable, Bioreversibly Modified Prodrugs of Nucleoside Diphosphate-γ-Phosphonates” (J Med Chem, 2020)
